Assay results taken from patent US20190389958A1, “ANTI-CXCR4 ANTIBODIES” (MSM Protein Technologies, Inc., priority 2017, published 2019).

How the values were obtained:
Human U937 cells = assay: Inhibition of SDF-1alpha-induced chemotaxis/cell migration (Example 9); format: cell-based; settings: U-937, SDF-1alpha 3 nM, AMD3100 1 μM
Experimental: Human U937 cells were grown in RPMI-1640 medium with 10% FCS, then washed twice and incubated in serum-free RPMI-1640 at 37° C. for 3 hours (5% CO2). Starved […] cells were re-suspended in medium for chemotaxis (RPMI-1640 with 0.3% BSA) at 3*10^5 cells per ml and • a) incubated for 30 min at room temperature (not-pre-treated positive control for assay); • b) pre-treated with AMD 3100 at 1 μM concentration (positive control for chemotaxis inhibition) for 30 min at room temperature; or • c) pre-treated with a test IgG at 100 nM concentration for 30 min at room temperature.
Respective not-pre-treated or pre-treated U937 cells were then placed into the top wells of a microchemotaxis chamber (15,000 cells per well).
A polycarbonate filter with a […] pore diameter separated top and bottom chambers.
After incubation for one hour at 37° C. (5% CO2), the cell suspensions were removed from the top wells, and the wells were washed once with PBS. […] The number of migrated cells in each well was determined using a Guava PCA-96 cytometer. […]
Maximal SDF-1 induced migration was calculated as the difference in the number of migrated cells between conditions (al) and (a) in the Table immediately above. The percentage of migration inhibition for a test antibody was then calculated by reference to this maximal migration.

RA1 cells [1] = assay: Anti-tumor activity in a SCID/RA1 xenograft model of Burkitt's lymphoma (Example 11); format: in vivo, SCID mice; settings: for Mean Survival / Median Survival / Mice alive at the end of the study = day 81 / % Increased life span: 10 mg/kg, IV, Q4D × 6; for % Increased life span: ILS % = [(T-C)/C]×100 of median survival; for survival of mice (in words): SCID mice with RA1 cells
Experimental: The therapeutic effect of test antibodies was evaluated in an animal model of Burkitt's lymphoma. In the model used, systemic cancer in SCID mice causes hind limb paralysis and infiltrates all major organs.
Forty-eight hours before tumor cell injection, female SCID mice (7-9 weeks old, weighing 17-22 g) were irradiated with a γ-source (1.8 Gy, ^60Co). […] The tumor bearing mice were distributed on D4 into 10 groups of 10 mice each based on body weight using Vivo Manager® software (Biosystemes, Dijon, France). […] Treatment started on D4: mice were administered intravenously a 5 mg/kg or a 10 mg/kg dose of test antibody on days 4, 8, 12, 16, 20 and 24. The vehicle for injection was 10 mM Na-Citrate, 150 mM NaCl, 50 mM Arginine (pH 5.5). Body weights were measured and recorded twice weekly. Mean survival time was calculated for each group as the mean of the day of death, and median survival time was calculated for each group as the median of the day of death. The efficacy of each test antibody was judged by the increased life span value (ILS). ILS % was expressed as follows: ILS %=[(T-C)/C]×100. T was the median of the survival times of animals treated with each test antibody, and C was the median survival time of control animals treated with vehicle.

RA1 cells [2] = assay: Antibody-dependent cell-mediated cytotoxicity (ADCC), LDH release (Example 10); format: cell-based, human; settings: E:T ratio 20:1
Experimental: ADCC was measured with RA1 cells as the target cells (T) and using the CytoTox 96® Non-Radioactive Cytotoxicity Assay (Promega Corp., Fitchburg, Wis.)), which assay measures lactate dehydrogenase (LDH) release. A round-bottom 96-well culture plate was set up with the following control and experimental wells (100 microliter final volumes):
a. RA1 cells (for target cell spontaneous LDH release control) b. RA1 cells (for target cell maximum LDH release control) c. Culture medium (RPMI 1640 Medium (1X) without phenol red) used for volume correction control d. Culture medium (for culture medium background control) e. RA1 plus effector cells (E) (for target plus effector cell spontaneous LDH release control) f. Experimental wells with effector and target cells (10^5) with serial dilutions of each test IgG or without test IgG.
The plates were centrifuged at 1600 rpm for 2 minutes and incubated at 37° C. for 4 hours. One hour prior to supernatant harvest, 20 microliters of Lysis Solution (10×) were added to the conditions b) and c). The plates were centrifuged at 1600 rpm for 2 minutes, and 50 microliters of the supernatant from each well of the assay plates were transferred to corresponding wells of a flat-bottom 96-well enzymatic assay plate. Substrate Mix (50 microliters) was added to each well of the latter plate, and the plate (protected from light) was incubated for 30 minutes at room temperature. Finally, 50 microliters of Stop Solution were added to each well, and absorbance (OD values) was measured at 490 nm. Each condition was tested in triplicates.
Preliminary experiments had been conducted in order to determine the optimal E:T ratio. The data shown below were obtained at a 20:1 E:T ratio with 10^5 RA1 target cells. The effector cells used in this study were prepared as follows: human peripheral blood mononuclear cells (PBMCs) obtained from a healthy donor were isolated by means of density gradient centrifugation using Lymphocyte Separation Medium (ref. J15-004, Invitrogen Corp., Carlsbad, Calif.). PBMCs at 2×10^6 per mL were cultured for two days in RPMI 1640 with 10% FCS, penicillin/streptomycin and 100 units per mL of human recombinant IL-2 (obtained from Roussel-Uclaf) in a 37° C. humidified incubator (5% CO2).
ADCC percentages obtained at different concentrations of test IgGs were calculated with the formula % ADCC=(f−e)/(b−a)×100, i.e., % ADCC=(OD of Target+Effector cells +/−Test Mab −OD of Spontaneous Release of Target+Effector cells)/(OD Maximal Release Target cells −OD Spontaneous Release of Target cells)×100.

Compound	inhibition at 1 µM (Human U937 cells)	Mean Survival (RA1 cells [1])	Median Survival (RA1 cells [1])	Mice alive at the end of the study = day 81 (RA1 cells [1])	% Increased life span (RA1 cells [1])	survival of mice (in words) (RA1 cells [1])	ADCC percentage (RA1 cells [2]; 0.0001 μg/mL)	ADCC percentage (RA1 cells [2]; 0.001 μg/mL)	ADCC percentage (RA1 cells [2]; 0.01 μg/mL)	ADCC percentage (RA1 cells [2]; 0.1 μg/mL)	ADCC percentage (RA1 cells [2]; 1 μg/mL)
c1cc(CN2CCCNCCNCCCNCC2)ccc1CN1CCCNCCNCCCNCC1 [AMD3100]	98%	–	–	–	–	–	–	–	–	–	–
Rituximab: CD20 antibody Mabthera, used as positive control [reference compound]	–	63 days	62 days	0/10	130%	lived significantly longer than control mice	3%	8%	27%	46%	60%
Xolair: isotypic control [reference compound]	–	29 days	27 days	0/10	0%	died of disseminated disease with severe weight loss or were terminated because they were moribund within four weeks	–	–	–	–	–
